Test results as given in patent publication US20090325857A1, “USE OF OPIOID RECEPTOR ANTAGONISTS” (priority 2006, published 2009).

Tests used:
Type in all cases: cell-based, human
[1] = tested on: hair follicle melanocytes; assay: Proliferation of hair follicle melanocytes (direct cell counting, hemocytometry); conditions: hair follicle cells, baseline = 100%
Description: (§1) Melanocytes are isolated and cultured either from hair follicles or epidermal skin derived from a normal adult scalp biopsy. Follicular and epidermal melanocytes are passaged in T25 plastic culture flasks to maximum 4th to maximize in vivo-like behavior. Cells are seeded into flasks and after 2 days are incubated with test substances added to the cell growth medium. The experimental set-up includes flasks in which the cells are either not treated (control) or incubated for 4 days with the appropriate amount of opioid antagonists, to assess the effect on melanin production.
(§2) Furthermore, the hair follicle cells were analysed for their proliferation and dentricity. Proliferation has been assessed by direct cell counting using hemocytometry. Cell dendricity has been assessed by phase contrast microscopy with representative photo documentation. It can be seen that the opioate receptor antagonists also have an effect on the proliferation and dentricity further supporting the use of the opiate receptor antagonists for the prevention of the graying of hair and/or for restoration and/or maintenance of the natural hair color

[2] = tested on: hair follicle melanocytes (HFM); assay: Melanin content in hair follicle melanocytes (HFM); conditions: 4 days incubation, baseline = 100%
Excerpt: Particularly, the activity of an agent in blocking an opioid receptor can be further determined by measuring the efficacy of the agent to cause a substantial increase of the total intracellular melanin production in human primary follicular melanocytes.
The effect of opioid antagonists on melanin production in hair follicular melanocytes can be measured in a cell-based in vitro assay.
as §1, with “cultured” for “cultured either”, “follicles” for “follicles or epidermal skin”, “Follicular” for “Follicular and epidermal”
(§3) After 4 days incubation, control and treated cells are collected and melanin is extracted from lysed cells. Melanin is quantified by measuring the spectrophotometric OD at 475 nm and calculating against a standardized curve. The resulting value is standardized against the number of cells counted per treatment and is given as micrograms of melanin per million cells.
as §1
as §3, with “million cells. As control known melanin production inducing references IBMX and full medium are used.” for “million cells.”

[3] = tested on: hair follicle melanocytes; assay: Dendricity of hair follicle melanocytes (phase contrast microscopy); conditions: hair follicle cells, baseline = 100%
Description: as §1, §2

[4] = tested on: epidermal melanocytes (EM); assay: Melanin content in epidermal melanocytes (EM); conditions: 4 days incubation, baseline = 100%
Description: as §1
as §3, with “million cells. As control known melanin production inducing references IBMX and full medium are used.” for “million cells.”

| Compound | Proliferation of melanocytes ([1]; concentration not given) [%] | Melanin content in HFM ([2]; concentration not given) [%] | Dentricity ([3]; concentration not given) [%] | Proliferation of melanocytes ([1]; 1 μM) [%] | Melanin content in HFM ([2]; 1 μM) [%] | Melanin content in HFM ([2]; 100 μM) [%] | Melanin content in EM ([4]; 1 μM) [%] | Melanin content in EM ([4]; 100 μM) [%] | Dentricity ([3]; 1 μM) [%] | Dentricity ([3]; 100 μM) [%] |
| --- | --- | --- | --- | --- | --- | --- | --- | --- | --- | --- |
| CC(C)Cn1c(=O)n(C)c(=O)c2[nH]cnc21 [IBMX] | 140 | 140 | 148 | – | – | – | – | – | – | – |
| C=CCN1CC[C@]23c4c5ccc(O)c4O[C@H]2/C(=N/N=C2\CC[C@@]4(O)[C@H]6Cc7ccc(O)c8c7[C@@]4(CCN6CC=C)[C@H]2O8)CC[C@@]3(O)[C@H]1C5 [Naloxonazine] | – | – | – | 109 | 120 | 242 | 40 | 25 | 105 | – |
| C=CCN1CC[C@]23c4c5ccc(O)c4O[C@H]2C(=O)CC[C@@]3(O)[C@H]1C5 [Naloxone] | – | – | – | 123 | – | – | 61 | 54 | 110 | 104 |
| beta endorphin (YGGFMTSEKSQTPLVTLFKNAIIKNAYKKGE; Beta-endorphin; UniProt P01189 237-267, looked up) [μ-opiate agonist] | – | 92 | – | – | – | – | – | – | – | – |
